What was measured:
PXR-HiBiT = molecular target: T1, PXR-HiBiT (Homo sapiens, UniProt O75469+Q96SW2); assay: Nano-Glo HiBiT lytic assay in HepG2 cells; assay type: cell-based; details: HepG2, 10 μM, 8 h, 0.3 ng PXR-HiBiT vector
T1 construct: host or cells: HepG2
Procedure: For HiBiT assay, HepG2 cells (40,000 cells/well) were seeded in a 48-well plate. The following day, cells were transfected with 0.3–100 ng of PXR-HiBiT (GenScript-HiBiT_NR1I2_OHu23779D_pcDNA3.1+/C-(K)-DYK) and 0.3–100 ng of CRBN (GenScript-CRBN_OHu21180D_pcDNA3.1+/C-(K)-DYK) in a 1:1 ratio using Lipofectamine 3000 (ThermoFisher Scientific), following the manufacturer’s protocol. After 24 h, cells were treated with varying concentrations of MI1013, and vehicle (0.1% DMSO). The plates were incubated for 8 h, and the HiBiT NanoLuc signal was measured using the Nano-Glo HiBiT Lytic Detection System (Promega; […]) in a Synergy microplate reader (Biotek) under luminescence mode with a read time of 0.2 s/well, gain set as auto, and integration time 2 s. Results are reported as relative abundance or response (%) change relative to DMSO control cells. […] The DC50 value was calculated using a curve fit–log(inhibitor) vs response–with a variable slope (four-parameter) logistic fitting using GraphPad Prism.

PXR = molecular target: T2, PXR (Homo sapiens, UniProt O75469+Q96SW2); assay: Western blot of PXR in differentiated HepaRG cells; assay type: cell-based
T2 construct: differentiated hepatic HepaRG cells, which naturally express high PXR activity and expression; endogenous in cells; host or cells: differentiated HepaRG
Procedure: The harvested HepaRG cells were lysed in RIPA lysis buffer (Cat. no 89900, Thermo Scientific) containing Halt protease inhibitor cocktail inhibitors (Thermo Scientific). Protein concentration was measured using the Pierce BCA Protein Assay Kit (Cat. no. 23225, Thermo Scientific), samples were diluted in 4 × Laemmli sample buffer (Cat. no. 1610747, BioRad) supplemented with mercaptoethanol and heated at 95 °C for 5 min. Equal amounts of protein were loaded in 4–20% Mini-PROTEAN TGX Stain-Free Protein Gels (12 well. cat. no. 4561095 or 15 well, cat. no. 4568096, Bio-Rad), electrophorised, and transferred onto Trans-Blot Turbo Midi-size PVDF Membrane (cat. no. 1704273, Bio-Rad), and blocked with EveryBlot Blocking buffer for 10 min (cat. no. 12010020, Bio-Rad). The membranes were incubated overnight at 4 °C with the following antibodies: PXR polyclonal antibody (1:500, PA5–41170, Invitrogen), RXRA polyclonal antibody (1:1000, 21218–1-AP, Proteintech), and GSPT1 polyclonal antibody (1:1000, 10763-a-AP, Proteintech), washed with TBS-T for 3 times, and followed by incubation with goat antirabbit IgG (H + L) Secondary antibody, HRP (1:200, 000, 1 h, cat. no. 31460, Invitrogen). Chemiluminescence signals were detected using SuperSignal West Femto Maximum Sensitivity Substrate (cat. no. 34096, Thermo Scientific) and visualized by the ChemiDoc MP Imaging system (Universal Hood III, #731BR02821, Bio-Rad), and the bands were quantified using β-actin (1:2000, recombinant rabbit conjugated monoclonal antibody (JF53-10), cat. no. MA5-32540, Invitrogen) as loading control with ImageJ (version 1.54g) software.

T2 sequence (O75469 whole entry): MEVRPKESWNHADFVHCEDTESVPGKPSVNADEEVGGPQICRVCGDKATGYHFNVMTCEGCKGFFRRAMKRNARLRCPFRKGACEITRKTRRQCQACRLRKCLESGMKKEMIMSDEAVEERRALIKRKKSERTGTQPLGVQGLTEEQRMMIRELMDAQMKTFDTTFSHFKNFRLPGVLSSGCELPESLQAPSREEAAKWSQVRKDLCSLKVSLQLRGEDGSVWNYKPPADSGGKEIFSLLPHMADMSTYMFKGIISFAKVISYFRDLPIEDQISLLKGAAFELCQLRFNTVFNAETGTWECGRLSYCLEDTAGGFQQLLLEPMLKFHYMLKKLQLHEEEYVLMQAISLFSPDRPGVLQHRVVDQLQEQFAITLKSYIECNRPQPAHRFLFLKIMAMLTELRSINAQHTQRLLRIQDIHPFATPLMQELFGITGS
T2 sequence (Q96SW2 whole entry): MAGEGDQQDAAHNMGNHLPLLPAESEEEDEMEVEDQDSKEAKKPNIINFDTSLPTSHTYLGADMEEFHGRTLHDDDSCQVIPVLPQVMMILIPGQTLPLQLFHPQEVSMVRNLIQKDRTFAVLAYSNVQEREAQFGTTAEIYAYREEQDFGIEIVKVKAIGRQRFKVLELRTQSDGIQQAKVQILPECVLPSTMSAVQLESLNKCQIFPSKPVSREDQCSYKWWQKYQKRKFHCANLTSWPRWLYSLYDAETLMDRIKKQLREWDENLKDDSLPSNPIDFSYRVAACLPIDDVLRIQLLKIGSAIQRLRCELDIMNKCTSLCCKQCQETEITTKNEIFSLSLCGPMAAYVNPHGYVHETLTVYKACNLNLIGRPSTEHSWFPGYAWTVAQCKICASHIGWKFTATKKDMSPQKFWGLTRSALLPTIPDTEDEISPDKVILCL
T1 sequence (O75469 whole entry): as the sequence (O75469 whole entry) above
T1 sequence (Q96SW2 whole entry): as the sequence (Q96SW2 whole entry) above

PXR-HiBiT degradation (PXR-HiBiT): confirmed PXR degradation | PXR degradation (Western blot) (PXR; 24 h): selectively degrades PXR | PXR degradation Dmax (PXR; 24 h, Western blot): 82% | DC50 (PXR; 24 h, Western blot, read-out: PXR degradation DC50): 89 nM
Substance: N-(4-((1-(2,5-dimethoxyphenyl)-5-methyl-1H-1,2,3-triazol-4-yl)sulfonyl)phenyl)-3-(2-(2-(2-(4-(((2-(2,6-dioxopiperidin-3-yl)-1,3-dioxoisoindolin-4-yl)amino)methyl)-1H-1,2,3-triazol-1-yl)ethoxy)ethoxy)ethoxy)propenamide [Compound 36]
PXR degradation, time course (PXR; 2 μM, reversal of PXR expression after 72 h): significant degradation of PXR after 12 h

Reference: publication PMC12305494, “Discovery of PXR Antagonist MI891 and PXR Degrader MI1013 and Their Roles in Hepatic Gene Regulation” (Journal of Medicinal Chemistry, 2025)
